Where “and” joins values, the source holds several entries; their conditions need not be identical. Equal values may be shown once. HELM strings list units from the 5' end as sugar, base in round brackets, then linkage (d deoxyribose, r ribose, m 2'-O-methyl, p phosphodiester). Strings are as the collection lists them, not checked against the first reports. ss, as = sense and antisense strand; [lna] = locked nucleic acid (LNA); [una] = unlocked nucleic acid; [s4r] = 4'-thioribose; [fl2r] = 2'-fluoro
Conditions: siRNA
Also: test system not given here.

For “RNA1{[fl2r](A)p.r(C)p.[fl2r](A)p.r(U)p.[fl2r](A)p.r(G)p.[fl2r](A)p.r(G)p.[fl2r](G)p.r(A)p.[fl2r](A)p.r(G)p.r(A)p.r(C)p.r(G)p.r(C)p.r(G)p.r(G)p.r(A)p.r(T)p.r(T)}|RNA2{[fl2r](U)p.r(C)p.[fl2r](C)p.r(G)p.[fl2r](C)p.r(G)p.[fl2r](U)p.r(C)p.[fl2r](U)p.r(U)p.[fl2r](C)p.r(C)p.[fl2r](U)p.r(C)p.[fl2r](U)p.r(A)p.[fl2r](U)p.r(G)p.r(U)p.r(T)p.r(T)}$$$RNA1{StrandType:ss}|RNA2{StrandType:as}$”, the target mRNA knockdown was 57%.

“RNA1{m(G)p.r(A)p.m(C)p.r(A)p.m(A)p.r(G)p.m(G)p.r(G)p.m(A)p.r(A)p.m(G)p.r(G)p.m(U)p.r(U)p.m(A)p.r(G)p.m(C)p.r(C)p.m(U)p.r(T)p.r(T)}|RNA2{r(A)p.r(G)p.r(G)p.r(C)p.r(U)p.r(A)p.r(A)p.r(C)p.r(C)p.r(U)p.r(U)p.r(C)p.r(C)p.r(C)p.r(U)p.r(U)p.r(G)p.r(U)p.r(C)p.r(T)p.r(T)}$$$RNA1{StrandType:ss}|RNA2{StrandType:as}$” showed a target mRNA knockdown of 34%.

“RNA1{r(G)p.r(U)p.r(A)p.r(U)p.r(G)p.r(A)p.r(C)p.r(C)p.r(G)p.r(A)p.r(C)p.r(U)p.r(A)p.r(C)p.r(G)p.r(C)p.r(G)p.r(U)p.r(A)p.r(T)p.r(T)}|RNA2{r(U)p.r(U)p.r(C)p.[una](A)p.r(G)p.r(U)p.r(G)p.r(U)p.r(G)p.r(A)p.r(U)p.r(G)p.r(A)p.r(C)p.r(A)p.r(C)p.r(U)p.r(U)p.r(G)p.r(T)p.r(T)}$$$RNA1{StrandType:ss}|RNA2{StrandType:as}$” showed a target mRNA knockdown of 94%.

In the case of “RNA1{m(U)p.r(U)p.m(A)p.r(C)p.m(A)p.r(A)p.m(A)p.r(G)p.m(G)p.r(A)p.m(U)p.r(C)p.m(U)p.r(C)p.m(C)p.r(U)p.m(C)p.r(C)p.m(C)p.r(T)p.r(T)}|RNA2{r(G)p.r(G)p.r(G)p.r(A)p.r(G)p.r(G)p.r(A)p.r(G)p.r(A)p.r(U)p.m(C)p.m(C)p.r(U)p.r(U)p.r(U)p.r(G)p.r(U)p.r(A)p.r(A)p.r(T)p.r(T)}$$$RNA1{StrandType:ss}|RNA2{StrandType:as}$”, the target mRNA knockdown is reported as 57%.

“RNA1{r(G)p.r(U)p.r(A)p.r(U)p.r(G)p.r(A)p.r(C)p.r(C)p.r(G)p.r(A)p.r(C)p.r(U)p.r(A)p.r(C)p.r(G)p.r(C)p.r(G)p.r(U)p.r(A)p.r(T)p.r(T)}|RNA2{r(U)p.r(U)p.r(C)p.r(A)p.r(G)p.r(U)p.r(G)p.r(U)p.r(G)p.r(A)p.r(U)p.r(G)p.r(A)p.r(C)p.r(A)p.r(C)p.[una](U)p.r(U)p.r(G)p.r(T)p.r(T)}$$$RNA1{StrandType:ss}|RNA2{StrandType:as}$” showed a target mRNA knockdown of 87%.

With “RNA1{r(A)p.r(A)p.r(C)p.r(A)p.r(G)p.r(U)p.r(C)p.r(C)p.r(U)p.m(U)p.r(A)p.r(G)p.r(C)p.m(U)p.r(A)p.r(C)p.r(G)p.r(C)p.m(U)p.r(T)p.r(T)}|RNA2{r(A)p.r(G)p.r(C)p.r(G)p.m(U)p.r(A)p.r(G)p.r(C)p.r(U)p.r(A)p.r(A)p.r(G)p.r(G)p.r(A)p.r(C)p.r(U)p.r(G)p.r(U)p.r(U)p.r(T)p.r(T)}$$$RNA1{StrandType:ss}|RNA2{StrandType:as}$” the target mRNA knockdown was 82%.

“RNA1{r(G)p.r(G)p.m(U)p.r(A)p.r(G)p.r(A)p.r(A)p.r(U)p.r(A)p.r(G)p.r(G)p.r(U)p.r(U)p.r(U)p.r(U)p.r(C)p.r(C)p.r(C)p.r(C)p.r(T)p.r(T)}|RNA2{r(G)p.r(G)p.r(G)p.r(G)p.r(A)p.r(A)p.r(A)p.r(A)p.r(C)p.r(C)p.m(U)p.r(A)p.r(U)p.r(U)p.r(C)p.r(U)p.r(A)p.r(C)p.r(C)p.r(T)p.r(T)}$$$RNA1{StrandType:ss}|RNA2{StrandType:as}$” showed a target mRNA knockdown of 82%.

Work on “RNA1{m(C)p.r(U)p.m(A)p.r(G)p.m(U)p.r(C)p.m(G)p.r(A)p.m(A)p.r(A)p.m(G)p.r(A)p.m(A)p.r(A)p.m(A)p.r(C)p.m(G)p.r(G)p.m(G)p.r(T)p.r(T)}|RNA2{r(C)p.r(C)p.r(C)p.r(G)p.r(U)p.r(U)p.r(U)p.r(U)p.r(C)p.r(U)p.r(U)p.r(U)p.r(C)p.r(G)p.m(A)p.r(C)p.r(U)p.m(A)p.r(G)p.r(T)p.r(T)}$$$RNA1{StrandType:ss}|RNA2{StrandType:as}$” yielded a target mRNA knockdown of 23%.

Work on “RNA1{[s4r](C)p.[s4r](G)p.[s4r](U)p.[s4r](A)p.[s4r](C)p.[s4r](G)p.r(C)p.r(G)p.r(G)p.r(A)p.r(A)p.r(U)p.r(A)p.r(C)p.r(U)p.r(U)p.r(C)p.r(G)p.r(A)p.r(T)p.r(T)}|RNA2{r(U)p.r(C)p.r(G)p.r(A)p.r(A)p.r(G)p.r(U)p.r(A)p.r(U)p.r(U)p.r(C)p.r(C)p.r(G)p.[s4r](C)p.[s4r](G)p.[s4r](U)p.[s4r](A)p.[s4r](C)p.[s4r](G)p.r(T)p.r(T)}$$$RNA1{StrandType:ss}|RNA2{StrandType:as}$” yielded a target mRNA knockdown of 47.8%.

“RNA1{m(A)p.r(A)p.m(U)p.r(A)p.m(A)p.r(G)p.m(C)p.r(A)p.m(G)p.r(C)p.m(U)p.r(C)p.m(G)p.r(C)p.m(G)p.r(C)p.m(U)p.r(C)p.m(C)p.r(T)p.r(T)}|RNA2{r(G)p.r(G)p.m(A)p.r(G)p.r(C)p.r(G)p.r(C)p.r(G)p.m(A)p.r(G)p.r(C)p.r(U)p.r(G)p.r(C)p.r(U)p.r(U)p.m(A)p.r(U)p.r(U)p.r(T)p.r(T)}$$$RNA1{StrandType:ss}|RNA2{StrandType:as}$” gave a target mRNA knockdown of 32%.

Work on “RNA1{[fl2r](A)p.r(A)p.[fl2r](C)p.r(C)p.[fl2r](C)p.r(A)p.[fl2r](C)p.r(C)p.[fl2r](A)p.r(C)p.[fl2r](A)p.r(G)p.[fl2r](C)p.r(U)p.[fl2r](A)p.r(G)p.[fl2r](A)p.r(A)p.[fl2r](C)p.r(U)p.r(U)}|RNA2{[fl2r](G)p.r(U)p.r(U)p.r(C)p.r(U)p.r(A)p.[fl2r](G)p.r(C)p.r(U)p.[fl2r](G)p.r(U)p.[fl2r](G)p.[fl2r](G)p.r(U)p.[fl2r](G)p.[fl2r](G)p.[fl2r](G)p.r(U)p.r(U)p.r(U)p.r(U)}$$$RNA1{StrandType:ss}|RNA2{StrandType:as}$” yielded a target mRNA knockdown of 57%.

In the case of “RNA1{r(A)p.r(G)p.r(U)p.m(U)p.r(A)p.r(A)p.r(C)p.r(C)p.r(C)p.r(G)p.r(G)p.r(G)p.r(A)p.r(C)p.r(U)p.m(U)p.r(G)p.r(G)p.r(A)p.r(T)p.r(T)}|RNA2{r(U)p.r(C)p.m(C)p.r(A)p.r(A)p.r(G)p.r(U)p.r(C)p.r(C)p.r(C)p.r(G)p.r(G)p.r(G)p.r(U)p.m(U)p.r(A)p.r(A)p.r(C)p.r(U)p.r(T)p.r(T)}$$$RNA1{StrandType:ss}|RNA2{StrandType:as}$”, the target mRNA knockdown is reported as 90%.

In the case of “RNA1{m(G)p.r(U)p.m(A)p.r(C)p.m(U)p.r(C)p.m(U)p.r(G)p.m(A)p.r(U)p.m(G)p.r(A)p.m(G)p.r(G)p.m(A)p.r(A)p.m(G)p.r(A)p.m(G)p.r(T)p.r(T)}|RNA2{r(C)p.r(U)p.r(C)p.r(U)p.r(U)p.r(C)p.r(C)p.r(U)p.r(C)p.r(A)p.r(U)p.r(C)p.r(A)p.r(G)p.r(A)p.r(G)p.r(U)p.r(A)p.r(C)p.r(T)p.r(T)}$$$RNA1{StrandType:ss}|RNA2{StrandType:as}$”, the target mRNA knockdown is reported as 18%.

Work on “RNA1{[s4r](A)p.[s4r](A)p.r(A)p.r(C)p.r(A)p.r(U)p.r(G)p.r(C)p.r(A)p.r(G)p.r(A)p.r(A)p.r(A)p.r(A)p.r(U)p.r(G)p.r(C)p.r(U)p.r(G)p.r(T)p.r(T)}|RNA2{r(C)p.r(A)p.r(G)p.r(C)p.r(A)p.r(U)p.r(U)p.r(U)p.r(U)p.r(C)p.r(U)p.r(G)p.r(C)p.r(A)p.r(U)p.[s4r](G)p.[s4r](U)p.[s4r](U)p.[s4r](U)p.r(T)p.r(T)}$$$RNA1{StrandType:ss}|RNA2{StrandType:as}$” yielded a target mRNA knockdown of 70.9%.

For “RNA1{r(G)p.r(U)p.r(G)p.r(A)p.r(A)p.r(G)p.r(U)p.r(C)p.r(A)p.r(A)p.r(C)p.r(A)p.r(U)p.r(G)p.r(C)p.r(C)p.r(U)p.r(G)p.r(C)p.d(T)p.d(T)}|RNA2{r(G)p.r(C)p.r(A)p.r(G)p.r(G)p.r(C)p.r(A)p.r(U)p.r(G)p.r(U)p.r(U)p.r(G)p.r(A)p.r(C)p.r(U)p.r(U)p.r(C)p.r(A)p.r(C)p.d(T)p.d(T)}$$$RNA1{StrandType:ss}|RNA2{StrandType:as}$”, the target mRNA knockdown was 50% and 70%.

Substance “RNA1{[fl2r](A)p.r(A)p.[fl2r](G)p.r(U)p.[fl2r](A)p.r(G)p.[fl2r](U)p.r(C)p.[fl2r](C)p.r(C)p.[fl2r](C)p.r(C)p.[fl2r](U)p.r(U)p.[fl2r](G)p.r(A)p.[fl2r](A)p.r(G)p.r(A)p.r(T)p.r(T)}|RNA2{r(U)p.r(C)p.r(U)p.r(U)p.r(C)p.r(A)p.r(A)p.r(G)p.r(G)p.r(G)p.r(G)p.r(G)p.r(A)p.r(C)p.r(U)p.r(A)p.r(C)p.r(U)p.r(U)p.r(T)p.r(T)}$$$RNA1{StrandType:ss}|RNA2{StrandType:as}$” has a target mRNA knockdown of 53%.

For “RNA1{r(A)p.r(G)p.r(A)p.r(C)p.[fl2r](U)p.r(A)p.r(A)p.r(G)p.r(C)p.r(C)p.[fl2r](C)p.r(A)p.r(A)p.r(A)p.r(A)p.r(G)p.r(G)p.r(G)p.r(C)p.r(T)p.r(T)}|RNA2{r(G)p.r(C)p.r(C)p.r(C)p.r(U)p.r(U)p.r(U)p.[fl2r](U)p.r(G)p.r(G)p.r(G)p.r(C)p.r(U)p.[fl2r](U)p.r(A)p.r(G)p.r(U)p.r(C)p.r(U)p.r(T)p.r(T)}$$$RNA1{StrandType:ss}|RNA2{StrandType:as}$”, the target mRNA knockdown was 45%.

Work on “RNA1{r(G)p.r(C)p.[fl2r](U)p.r(G)p.r(A)p.r(A)p.r(C)p.[fl2r](U)p.r(A)p.r(G)p.r(U)p.r(C)p.r(G)p.r(A)p.r(A)p.r(A)p.r(G)p.r(A)p.r(A)p.r(T)p.r(T)}|RNA2{r(U)p.r(U)p.r(C)p.r(U)p.r(U)p.r(U)p.r(C)p.r(G)p.r(A)p.r(C)p.[fl2r](U)p.r(A)p.r(G)p.r(U)p.r(U)p.[fl2r](C)p.r(A)p.r(G)p.r(C)p.r(T)p.r(T)}$$$RNA1{StrandType:ss}|RNA2{StrandType:as}$” yielded a target mRNA knockdown of 78%.

“RNA1{r(C)p.r(U)p.r(U)p.r(A)p.r(C)p.r(G)p.r(C)p.r(U)p.r(G)p.r(A)p.r(G)p.r(U)p.r(A)p.r(C)p.r(U)p.r(U)p.r(C)p.r(G)p.r(A)p.r(T)p.r(T)}|RNA2{r(U)p.r(C)p.r(G)p.r(A)p.r(A)p.r(G)p.r(U)p.r(A)p.r(C)p.r(U)p.r(C)p.r(A)p.r(G)p.r(C)p.r(G)p.r(U)p.r(A)p.r(A)p.r(G)p.[lna](T)p.[lna](T)}$$$RNA1{StrandType:ss}|RNA2{StrandType:as}$” showed a target mRNA knockdown of 93%.

With “RNA1{r(A)p.r(G)p.r(C)p.r(G)p.r(G)p.r(G)p.r(G)p.m(U)p.r(A)p.m(U)p.r(G)p.r(A)p.r(A)p.r(G)p.m(A)p.r(G)p.r(C)p.r(U)p.r(U)p.r(T)p.r(T)}|RNA2{r(A)p.r(A)p.r(G)p.r(C)p.r(U)p.r(C)p.r(U)p.r(U)p.m(C)p.r(A)p.m(U)p.r(A)p.r(C)p.r(C)p.r(C)p.r(C)p.r(G)p.r(C)p.r(U)p.r(T)p.r(T)}$$$RNA1{StrandType:ss}|RNA2{StrandType:as}$” the target mRNA knockdown was 85%.

Reference: the OligoGym collection
